Laboratory results published in US5541232A, “Treatment of multidrug resistant diseases” (Chemex Pharmaceuticals, Inc., priority 1994, dated 1996).
Where two headings read alike, the source gives them in different places.

Experiments:
LOX-IMVI Melanoma cells = test: in vitro cytotoxicity anti tumor activity; type: cell-based; settings: Homo sapiens, read-out: IC50
[1] = system: Detroit 551 Skin Fibroblasts; test: in vitro cytotoxicity, normal cells; type: cell-based; settings: Homo sapiens, read-out: IC50
[2] = system: KB-3-1 human cervical carcinoma cells; test: efflux of VBL, KB-3-1; type: cell-based; settings: 50 μM masoprocol
Protocol: A further test was conducted to show the effect of masoprocol on the efflux of VBL from cells. Cells were incubated with [^3 H]VBL with or without 50 μM masoprocol for 2 hours. The medium was then replaced with drug-free medium. After incubation for various times, the amount of VBL remaining in the cells was determined as described above. The data was presented in terms of the percentage of VBL remaining at various efflux times compared to VBL in cells with an efflux time of zero. In FIGS. 3a and 3b, efflux is expressed as pmol VBL. In FIGS. 3c and 3d, efflux is expressed as percentage of VBL levels at time zero.

[3] = system: KB-3-1 human cervical carcinoma cells; test: modulation of cisplatin uptake; type: cell-based; settings: one hour, 5 μM cisplatin; FIG. 5
Protocol: Subconfluent cultures of KB-3-1 cells were incubated with [^3 H]cisplatin (cis-DDP) in culture medium or in medium containing the indicated concentrations of masoprocol as presented in FIG. 5. After one hour incubation, the medium was aspirated and the cells washed 5 times with ice cold PBS. Cells were digested overnight in 1N NaOH, at which time aliquots were used to determine protein content and radioactivity. The final concentration of cisplatin was 5 μM. Each data point represents the mean of triplicate dishes from replicate experiments. The vertical bars are +/- standard deviations.

[4] = system: human breast adenocarcinoma; settings: cited from earlier work

## C[C@H](Cc1ccc(O)c(O)c1)[C@@H](C)Cc1ccc(O)c(O)c1 [Masoprocol, meso-1,4-bis (3,4-dihydroxyphenyl)-2,3-dimethylbutane]
LOX-IMVI Melanoma cells; 1 h, One Hour Pulse Treatment
  IC50: 38.4 µM
LOX-IMVI Melanoma cells; Continuous Drug Exposure, observation at 70 hours
  IC50: 0.08 µM
[1]; Detroit 551, 1 h, One Hour Pulse Treatment
  IC50: 62.7 µM
[1]; Detroit 551, Continuous Drug Exposure, observation at 70 hours
  IC50: 312 µM
[2]
  modulation of VBL efflux: does not modulate VBL efflux
[2]; 2 hours, FIG. 3b
  VBL levels at efflux time zero: higher in masoprocol-treated cells
[2]; FIG. 3d
  percent of VBL retained at various efflux time points: not affected by masoprocol treatment
[2]; listed as masoprocol
  modulation of VBL efflux: does not influence the rate of efflux of VBL
[3]
  increase in uptake of cisplatin: about 25%
[4]
  effectiveness against human breast adenocarcinoma: particularly effective
